In patent US20050197336A1 (Miikana Therapeutics Corporation, priority 2004, published 2005):

Columns and labels:
MCF7 cells = experiment: Whole cell cytotoxicity assay: Sulforhodamine B; format: cell-based, human; conditions: Homo sapiens; compound at 100 μM; MCF7 cell growth; 48 hours with drug; SRB staining
Protocol: The following procedure can be found on the Developmental Therapeutics Program NCI/NIH web site at http://dtp.nci.nih.gov/brancehes/btb/ivclsp.html.
1. Human tumor cell lines of HT29, A549 and MCF7 are grown in DMEM containing 10% fetal bovine serum and 2 mM L-glutamine. Cells are plated in a 96 well plate at a density of 5000 cells per well in 100 μL of growth medium and incubated at 37° C., 5% CO2, for 24 hours prior to the addition of experimental compounds.
2. Experimental drugs are solubilized in DMSO for a final concentration of 20 mM immediately prior to use. Drugs are further diluted in growth media for a total of nine drug concentrations and a growth control. At the 24 hour time point, one plate of cells is fixed in situ with TCA as a measurement of the cell population at time zero, or the time of drug addition.
3. The plates are further incubated with drug for an additional 48 hours.
4. The cells are fixed in situ by gently aspirating off the culture media and then adding 50 μL of ice cold 10% TCA per well and incubated at 4° C. for 60 minutes. The plates are washed with tap water five times and allowed to air dry for 5 minute.
5. 50 μL of a 0.4% (w/v) Sulforhodamine B solution in 1% (v/v) acetic acid is added per well and incubated for 30 minutes at room temperature.
6. Following staining, plates are washed five times with 1% acetic acid to remove any unbound dye and then allowed to air dry for 5 minutes.
7. Stain is solubilized with 100 μL of 10 mM Tris pH 10.5 per well and placed on an orbital rotator for 5 minutes.
8. Absorbance is read at 570 nm.

[1] = system: Histone deacetylase (HDAC), HeLa cell nuclear extract; experiment: In vitro fluorescent histone deacetylase assay (Biomol kit, HeLa cell nuclear extract); format: biochemical; conditions: compound at 100 μM; HeLa cell nuclear extract as HDAC source; substrate 50 μM; 10 min at room temperature
Protocol: Histone deacetylase (HDAC) activity assays were performed using the HDAC fluorescent activity assay/drug discovery kit (Biomol Research Laboratories, Plymouth Meeting, Pa.) essentially according to the manufacturer's instructions. The included HeLa cell nuclear extract, which contains a mosaic of HDAC enzymes and other nuclear factors, was used as the source of HDAC activity. The final substrate concentration in the assay mixture was 50 μM. The reaction was allowed to proceed for 10 min at room temperature before stopping the reaction. Test compounds were prepared as 20 mM stock solutions in DMSO (Molecular Biology grade, Sigma-Aldrich Co. St. Louis, Mo.) and stored at −70° C. Serial dilutions of test compounds were prepared in assay buffer immediately prior to testing. DMSO was determined in a separate trial to have no significant effect on the activity of this assay at concentrations up to 5%; the final DMSO concentration in the wells was no more than 2% and therefore DMSO effects were safely neglected. Assays were performed in white polystyrene 96-well half-area assay plates (Corning, Corning, N.Y.) and measured on a Wallace 1420 fluorescent plate reader (Wallac Oy, Turku, Finland) with an excitation wavelength of 355 nm, an emission wavelength of 460 nm, and a 1 sec signal averaging time.

Compound	inhibition at 100 µM (MCF7 cells) [%]	% inhibition HDAC @ 100 μM [1] [%]
Cc1ccc(F)cc1S(=O)(=O)N1CCN(c2ncc(C(=O)NO)s2)CC1 [Example 33, 2-[4-(2-methyl-5-fluorophenylsulfonyl)-piperazin-1-yl]-thiazole-5-carboxylic acid hydroxyamide]	98.4	96
O=C(NO)c1cnc(N2CCN(S(=O)(=O)c3ccccc3F)CC2)s1 [Example 34, 2-[4-(2-fluorophenylsulfonyl)-piperazin-1-yl]-thiazole-5-carboxylic acid hydroxyamide]	97.7	92
O=C(NO)c1cnc(N2CCN(S(=O)(=O)c3cccc(F)c3)CC2)s1 [Example 35, 2-[4-(3-fluorophenylsulfonyl)-piperazin-1-yl]-thiazole-5-carboxylic acid hydroxyamide]	97.9	97
O=C(NO)c1cnc(N2CCN(S(=O)(=O)c3ccc(F)c(F)c3)CC2)s1 [Example 36, 2-[4-(3,4-difluorophenylsulfonyl)-piperazin-1-yl]-thiazole-5-carboxylic acid hydroxyamide]	98.2	98
O=C(NO)c1cnc(N2CCN(S(=O)(=O)c3ccccc3C(F)(F)F)CC2)s1 [Example 37, 2-[4-(2-trifluoromethylphenylsulfonyl)-piperazin-1-yl]-thiazole-5-carboxylic acid hydroxyamide]	98	99
Cc1cccc(Cl)c1S(=O)(=O)N1CCN(c2ncc(C(=O)NO)s2)CC1 [Example 38]	97.8	100
Cc1ccc(S(=O)(=O)N2CCN(c3ncc(C(=O)NO)s3)CC2)cc1F [Example 40, 2-[4-(3-fluoro-4-methylphenylsulfonyl)-piperazin-1-yl]-thiazole-5-carboxylic acid hydroxyamide]	99.1	100
Cc1cc(F)ccc1S(=O)(=O)N1CCN(c2ncc(C(=O)NO)s2)CC1 [Example 41, 2-[4-(4-fluoro-2-methylphenylsulfonyl)-piperazin-1-yl]-thiazole-5-carboxylic acid hydroxyamide]	98.1	98
O=C(NO)c1cnc(N2CCN(S(=O)(=O)c3cc4ccccc4s3)CC2)s1 [Example 43]	91	99
CSc1nccc(-c2ccc(S(=O)(=O)N3CCN(c4ncc(C(=O)NO)s4)CC3)s2)n1 [Example 45, 2-[4-(2-{2-methylthiopyrimidine-4-yl}-5-thiophenesulfonyl)-piperazin-1-yl]-thiazole-5-carboxylic acid hydroxyamide]	78.7	95
O=C(NO)c1cnc(N2CCN(S(=O)(=O)c3ccc4nsnc4c3)CC2)s1 [Example 46, 2-[4-(2,1,3-benzothiadiazole-5-sulfonyl)-piperazin-1-yl]-thiazole-5-carboxylic acid hydroxyamide]	77.3	98
O=C(NO)c1cnc(N2CCN(S(=O)(=O)c3ccc(Oc4ccccc4)nc3)CC2)s1 [Example 47, 2-[4-(2-phenoxypyridine-5-sulfonyl)-piperazin-1-yl]-thiazole-5-carboxylic acid hydroxyamide]	90.2	96
CN1CCOc2cc(S(=O)(=O)N3CCN(c4ncc(C(=O)NO)s4)CC3)ccc21 [Example 48, 2-[4-(N-methyl-2,3-dihydrobenzisoxazinylsulfonyl)-piperazin-1-yl]-thiazole-5-carboxylic acid hydroxyamide]	89.4	96
O=C(NO)c1cnc(N2CCN(S(=O)(=O)c3cccnc3)CC2)s1 [Example 49, 2-[4-(pyridine-3-sulfonyl)-piperazin-1-yl]-thiazole-5-carboxylic acid hydroxyamide]	95.4	85
Cc1ccc(S(=O)(=O)N2CCN(c3ncc(C(=O)NO)s3)CC2)cc1C [Example 50, 2-[4-(3,4-dimethylphenylsulfonyl)-piperazin-1-yl]-thiazole-5-carboxylic acid hydroxyamide]	98.3	99
O=C(NO)c1cnc(N2CCN(S(=O)(=O)c3cccc(-c4ccccc4)c3)CC2)s1 [Example 51, 2-[4-(3-biphenylsulfonyl)-piperazin-1-yl]-thiazole-5-carboxylic acid hydroxyamide]	97	100
CCCCS(=O)(=O)N1CCN(c2ncc(C(=O)NO)s2)CC1 [Example 53, 2-[4-(n-butylsulfonyl)piperazin-1-yl]-thiazole-5-carboxylic acid hydroxyamide]	89.9	94
O=C(NO)c1cnc(N2CCN(S(=O)(=O)c3ccc(Br)s3)CC2)s1 [Example 55, 2-{4-[(5-bromothien-2-yl)sulfonyl]piperazin-1-yl}-N-hydroxy-1,3-thiazole-5-carboxamide]	0	9
O=C(NO)c1cnc(N2CCN(S(=O)(=O)c3ccc(-c4ccc(F)cc4)cc3)CC2)s1 [Example 56, 2-{4-[(4′-fluoro-1,1′-biphenyl-4-yl)sulfonyl]piperazin-1-yl}-1,3-thiazole-5-carboxylic acid hydroxyamide]	96.9	98
O=C(NO)c1cnc(N2CCN(S(=O)(=O)c3ccc(-c4cccc(Cl)c4)cc3)CC2)s1 [Example 57, 2-{4-[(3′-chloro-1,1′-biphenyl-4-yl)sulfonyl]piperazin-1-yl}-1,3-thiazole-5-carboxylic acid hydroxyamide]	68.6	93
O=C(NO)c1cnc(N2CCN(S(=O)(=O)c3ccc(-c4ccccc4Cl)cc3)CC2)s1 [Example 58, 2-{4-[(2′-chloro-1,1′-biphenyl-4-yl)sulfonyl]piperazin-1-yl}-1,3-thiazole-5-carboxylic acid hydroxyamide]	97.6	95
O=C(NO)c1cnc(N2CCN(S(=O)(=O)c3ccc(-c4ccco4)cc3)CC2)s1 [Example 59, 2-(4-{[4-(2-furyl)phenyl]sulfonyl}piperazin-1-yl)-1,3-thiazole-5-carboxylic acid hydroxyamide]	98.9	99
O=C(NO)c1cnc(N2CCN(S(=O)(=O)c3ccc(-c4ccc5c(c4)OCO5)cc3)CC2)s1 [Example 60, 2-(4-{[4-(1,3-benzodioxol-5-yl)phenyl]sulfonyl}piperazin-1-yl)-1,3-thiazole-5-carboxylic acid hydroxyamide]	92.1	99
O=C(NO)c1cnc(N2CCN(S(=O)(=O)c3ccc(-c4cccc(F)c4)cc3)CC2)s1 [Example 61]	92.2	95
O=C(NO)c1cnc(N2CCN(S(=O)(=O)c3ccc(-c4ccc(Cl)cc4)cc3)CC2)s1 [Example 62]	75	98
COc1ccc(-c2ccc(S(=O)(=O)N3CCN(c4ncc(C(=O)NO)s4)CC3)cc2)cc1 [Example 63]	93.3	98
CC(C)(C)c1ccc(-c2ccc(S(=O)(=O)N3CCN(c4ncc(C(=O)NO)s4)CC3)cc2)cc1 [Example 64]	87	48
O=C(NO)c1cnc(N2CCN(S(=O)(=O)c3ccc(-c4cccs4)cc3)CC2)s1 [Example 65, 2-{4-[(4-thien-2-ylphenyl)sulfonyl]piperazin-1-yl}-1,3-thiazole-5-carboxylic acid hydroxamide]	95	99
CC(C)(C)OC(=O)n1cccc1-c1ccc(S(=O)(=O)N2CCN(c3ncc(C(=O)NO)s3)CC2)cc1 [Example 66]	97	99
